Results as given in patent US9000050B2, “SHIP1 modulators and related methods” (The University of British Columbia, priority 2010, dated 2015).
Values after ≈ are worked out from the molar mass of the structure shown.

Target: T1, His-hSHIP1 enzyme (Homo sapiens, UniProt Q92835)
T1 construct: His
T1 sequence (Q92835 1-1189): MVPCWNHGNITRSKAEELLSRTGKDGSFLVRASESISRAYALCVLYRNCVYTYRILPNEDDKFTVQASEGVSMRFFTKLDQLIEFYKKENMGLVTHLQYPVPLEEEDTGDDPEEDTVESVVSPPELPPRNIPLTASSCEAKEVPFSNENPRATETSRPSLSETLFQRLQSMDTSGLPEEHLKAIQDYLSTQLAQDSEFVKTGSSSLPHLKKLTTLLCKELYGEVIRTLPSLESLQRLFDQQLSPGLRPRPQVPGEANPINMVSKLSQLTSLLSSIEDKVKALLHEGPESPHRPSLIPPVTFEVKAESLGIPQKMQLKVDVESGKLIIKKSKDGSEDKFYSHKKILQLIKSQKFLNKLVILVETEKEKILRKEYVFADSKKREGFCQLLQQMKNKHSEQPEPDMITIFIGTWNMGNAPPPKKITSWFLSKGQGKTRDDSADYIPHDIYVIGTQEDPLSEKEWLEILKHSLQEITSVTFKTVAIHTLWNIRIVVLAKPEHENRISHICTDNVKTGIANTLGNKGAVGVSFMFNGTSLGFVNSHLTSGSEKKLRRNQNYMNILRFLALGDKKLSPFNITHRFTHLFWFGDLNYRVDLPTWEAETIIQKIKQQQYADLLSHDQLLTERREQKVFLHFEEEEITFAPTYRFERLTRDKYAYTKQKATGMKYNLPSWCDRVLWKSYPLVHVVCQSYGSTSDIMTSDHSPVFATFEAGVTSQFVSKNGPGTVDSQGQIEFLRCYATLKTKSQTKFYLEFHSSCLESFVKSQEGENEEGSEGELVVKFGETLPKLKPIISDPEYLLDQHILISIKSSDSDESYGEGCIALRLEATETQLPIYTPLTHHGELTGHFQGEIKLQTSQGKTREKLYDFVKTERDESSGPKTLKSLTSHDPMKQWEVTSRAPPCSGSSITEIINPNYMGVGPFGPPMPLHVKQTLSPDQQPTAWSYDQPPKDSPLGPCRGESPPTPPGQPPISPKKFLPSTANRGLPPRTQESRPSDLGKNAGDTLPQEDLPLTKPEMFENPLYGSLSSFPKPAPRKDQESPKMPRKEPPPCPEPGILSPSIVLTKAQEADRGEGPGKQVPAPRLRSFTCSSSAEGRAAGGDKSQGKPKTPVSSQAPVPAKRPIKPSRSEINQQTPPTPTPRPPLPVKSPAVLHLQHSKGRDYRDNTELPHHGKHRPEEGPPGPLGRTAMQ
Test: His-hSHIP1 enzyme activation assay (IP4 substrate, Biomol Green phosphate release)
Format: biochemical
Conditions: percentage increase relative to background; concentrations ≦300 μM
Method: Test compounds are dissolved in 95% ethanol to form stock solutions. Before screening, the stock solutions are diluted with Phosphatase Assay Buffer (20 mM Tris-HCL, 10 mM MgCl2 pH 7.5, 0.02% Tween 20) to form working assay solutions that contain 10% ethanol. The assay is carried out on 96-well microtiter plates using a modified procedure of that reported by Ong et al., Blood 110, 1942-1949, 2007 and Yang et al., Org Lett 7, 1073-1076, 2005, both of which references are incorporated herein by reference in their entirety.
Each reaction contains 5 μL of His-hSHIP1 enzyme (15-20 ng), 10 μL of the substrate, 1,3,4,5-inositol tetrakisphosphate (IP4; 50 μM final), 5 μL of Phosphatase Assay Buffer, and 5 μL of test compound at various concentrations in 10% ethanol (0-300 μM final). Control blanks are also prepared by replacing His-hSHIP1 enzyme, IP4, or test compounds with Phosphatase Assay Buffer. After adding the reaction components in a 96-well microtiter plate on ice, the reaction is mixed by briefly shaking the plate vigorously. The reaction is then incubated at 37° C. for 15 min with gentle shaking followed by addition of 100 μL of Biomol Green Reagent (BIOMOL, PA, USA) to terminate the reaction. The free phosphate released from IP4 by His-hSHIP1 binds to the Biomol Green Reagent, which turns the dye to green color. After incubating the mixture for 20 min at room temperature for color development, the absorbance is read with SpectraMax Plus 96-well plate reader (Molecular Devices, Sunnyvale, Calif., USA) at a wavelength of 650 nm.
Percent (%) activation in Table 2 is expressed as a percentage increase relative to background. Scoring is expressed as follows: +(<25%); ++(≧25% but <50%); +++(≧50%).

Activation of His-hSHIP1 Enzyme, Scoring (percent activation)	Structure (SMILES)
++ (≧25% but <50%)	CC1(C)[C@H](O)CC[C@]2(C)[C@@H]1CC[C@]1(C)c3c(O)cc(O)cc3C[C@@H]21 (racemic) [16a/16b]
+++ (≧50%)	CC1(C)C(=O)CC[C@]2(C)[C@@H]1CC[C@]1(C)c3c(O)cc(O)cc3C[C@@H]21 (racemic) [7a/7b]
++ (≧25% but <50%)	COc1cc2c(c(OC)c1)[C@@]1(C)CC[C@@H]3C(C)(C)[C@H](O)CC[C@@]3(C)[C@@H]1C2 (racemic) [5a/5b]
+ (<25%)	CC1(C)[C@H]2CC[C@]3(C)c4c(O)cc(O)cc4C[C@H]3[C@]2(C)CC[C@@H]1N.Cl [8a•HCl, (3S,4aS,6aS,11aS,11bS)-3-Amino-4,4,6a,11b-tetramethyl-2,3,4,4a,5,6,6a,11,11a,11b-decahydro-1H-benzo[a]fluorene-7,9-diol Hydrochloride]
++ (≧25% but <50%)	COc1cc(C)c2c(c1)C[C@H]1[C@]3(C)CC[C@@H](O)C(C)(C)[C@H]3CC[C@]21C (racemic) [17a/17b]
+ (<25%)	CC1(C)[C@@H](N)CC[C@]2(C)[C@H]3Cc4cc(O)cc(O)c4[C@]3(C)CC[C@@H]12 [Compound 9b]
++ (≧25% but <50%)	Cc1cc(O)cc2c1[C@@]1(C)CC[C@@H]3C(C)(C)C(=O)CC[C@@]3(C)[C@@H]1C2 (racemic) [19a/19b]

System: not listed separately
Test: Water solubility (24 h stirring in deionized water, HPLC)
Format: physicochemical
Conditions: thermodynamic from solid, stirred 24 hours, read-out: Soluble Concentration
Method: Samples are weighed accurately in duplicate (˜3 mg each) in 4 mL glass vials. The appropriate amount of deionized water is added to obtain a final concentration of 6 mg/mL. A stir bar is placed in the vial and the two mixtures are stirred for 24 hours, after which the samples are filtered using a glass filter membrane. The resulting filtrate is centrifuged in a glass conical tube for 10 minutes at 10,000 rpm to sediment any precipitate that may have passed through the glass membrane. The supernatant is sampled for HPLC analysis. The concentration of the test compound is determined by HPLC using a six-point standard curve of the compound prepared in methanol.

solubility at 24 h [mg/mL]	Structure (SMILES)
0.133 (≈ 402 µM)	CC1(C)[C@@H](O)CC[C@]2(C)[C@H]3Cc4cc(O)cc(O)c4[C@]3(C)CC[C@@H]12 [Compound 16b, (3S,4aR,6aR,11aR,11bR)-2,3,4,4a,5,6,6a,11,11a,11b-decahydro-4,4,6a,11b-tetramethyl-1H-benzo[a]fluorene-3,7,9-triol]
1.4	CC1(C)[C@H]2CC[C@]3(C)c4c(O)cc(O)cc4C[C@H]3[C@]2(C)CC[C@@H]1N.Cl [8a•HCl, (3S,4aS,6aS,11aS,11bS)-3-Amino-4,4,6a,11b-tetramethyl-2,3,4,4a,5,6,6a,11,11a,11b-decahydro-1H-benzo[a]fluorene-7,9-diol Hydrochloride]
